Results from PubChem BioAssay (NCI).
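48-hour exposure; five concentrations; linearly interpolated endpoints. GI50: concentration for 50% inhibition of growth. Definition used: TGI = concentration required for complete inhibition of growth.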

Experiments:
Experiment in all cases: NCI tumour cell line growth inhibition, 48 h
HL-60(TB) leukemia = system: HL-60(TB) leukemia
SNB-19 CNS = system: SNB-19 CNS
OVCAR-5 ovarian = system: OVCAR-5 ovarian
ACHN renal = system: ACHN renal
SN12C renal = system: SN12C renal
NCI/ADR-RES ovarian = system: NCI/ADR-RES ovarian
UO-31 renal = system: UO-31 renal
TK-10 renal = system: TK-10 renal
U251 CNS = system: U251 CNS
OVCAR-3 ovarian = system: OVCAR-3 ovarian
LOX IMVI melanoma = system: LOX IMVI melanoma
HOP-62 NSCLC = system: HOP-62 NSCLC
HT29 colon = system: HT29 colon
EKVX NSCLC = system: EKVX NSCLC
NCI-H460 lung = system: NCI-H460 lung
NCI-H226 lung = system: NCI-H226 lung
SF-539 CNS = system: SF-539 CNS
SW-620 colon = system: SW-620 colon
HS 578T breast = system: HS 578T breast
SF-268 CNS = system: SF-268 CNS
MOLT-4 leukemia = system: MOLT-4 leukemia
786-0 renal = system: 786-0 renal
RPMI-8226 leukemia = system: RPMI-8226 leukemia
NCI-H23 lung = system: NCI-H23 lung
OVCAR-4 ovarian = system: OVCAR-4 ovarian
BT-549 breast = system: BT-549 breast
HOP-92 NSCLC = system: HOP-92 NSCLC
IGROV1 ovarian = system: IGROV1 ovarian
SK-MEL-5 melanoma = system: SK-MEL-5 melanoma

Oc1cccc(-c2nc(-c3n[nH]c(=S)n3-c3ccccc3)cc3c2[nH]c2ccccc23)c1
TGI (HL-60(TB) leukemia): 8.98 µM | GI50 (SNB-19 CNS): 3.11 µM | TGI (SNB-19 CNS): 11.4 µM | GI50 (OVCAR-5 ovarian): 4.38 µM | TGI (OVCAR-5 ovarian): 15.7 µM | GI50 (ACHN renal): 3.95 µM | TGI (ACHN renal): 14.6 µM | GI50 (SN12C renal): 4.03 µM | TGI (SN12C renal): 15.5 µM | GI50 (NCI/ADR-RES ovarian): 13.2 µM | TGI (NCI/ADR-RES ovarian): 69.7 µM | GI50 (UO-31 renal): 2090 nM | TGI (UO-31 renal): 11.7 µM | GI50 (TK-10 renal): 4.08 µM | TGI (TK-10 renal): 16.3 µM | GI50 (U251 CNS): 2980 nM | TGI (U251 CNS): 11 µM | GI50 (OVCAR-3 ovarian): 2180 nM | TGI (OVCAR-3 ovarian): 5.73 µM | GI50 (LOX IMVI melanoma): 1800 nM | TGI (LOX IMVI melanoma): 3.83 µM | GI50 (HOP-62 NSCLC): 2240 nM | TGI (HOP-62 NSCLC): 7.96 µM | GI50 (HT29 colon): 2550 nM | TGI (HT29 colon): 6.18 µM | GI50 (EKVX NSCLC): 4 µM | TGI (EKVX NSCLC): 23.4 µM | GI50 (NCI-H460 lung): 3.1 µM | TGI (NCI-H460 lung): 9.5 µM | GI50 (NCI-H226 lung): 3.92 µM | TGI (NCI-H226 lung): 18.6 µM | GI50 (SF-539 CNS): 1800 nM | TGI (SF-539 CNS): 3.96 µM | GI50 (SW-620 colon): 3.63 µM | TGI (SW-620 colon): 11.9 µM | GI50 (HS 578T breast): 3.43 µM | TGI (HS 578T breast): 24.6 µM | GI50 (SF-268 CNS): 3.56 µM | TGI (SF-268 CNS): 14.7 µM | GI50 (MOLT-4 leukemia): 3.78 µM | TGI (MOLT-4 leukemia): 14 µM | GI50 (786-0 renal): 3.19 µM | TGI (786-0 renal): 11 µM | GI50 (RPMI-8226 leukemia): 2690 nM | TGI (RPMI-8226 leukemia): 7.86 µM | GI50 (NCI-H23 lung): 3.97 µM | TGI (NCI-H23 lung): 19.7 µM | GI50 (OVCAR-4 ovarian): 3.79 µM | TGI (OVCAR-4 ovarian): 17.3 µM | GI50 (BT-549 breast): 2670 nM | TGI (BT-549 breast): 6.8 µM | GI50 (HOP-92 NSCLC): 4.31 µM | TGI (HOP-92 NSCLC): 18.1 µM | GI50 (IGROV1 ovarian): 2290 nM | TGI (IGROV1 ovarian): 11.2 µM | GI50 (SK-MEL-5 melanoma): 3.15 µM | TGI (SK-MEL-5 melanoma): 11 µM
